Measured values published in article PMC5703966, “Systemic clearance and brain distribution of carbazole-based cyanine compounds as Alzheimer’s disease drug candidates” (Scientific Reports, 2017).

Assays:
in vitro = conditions: human, Caco-2
OATP1A2 = target: T1, OATP1A2 (Homo sapiens, UniProt P46721); test: OATP substrate identification, uptake in stably transfected HEK293 cells
T1 sequence (P46721 1-670): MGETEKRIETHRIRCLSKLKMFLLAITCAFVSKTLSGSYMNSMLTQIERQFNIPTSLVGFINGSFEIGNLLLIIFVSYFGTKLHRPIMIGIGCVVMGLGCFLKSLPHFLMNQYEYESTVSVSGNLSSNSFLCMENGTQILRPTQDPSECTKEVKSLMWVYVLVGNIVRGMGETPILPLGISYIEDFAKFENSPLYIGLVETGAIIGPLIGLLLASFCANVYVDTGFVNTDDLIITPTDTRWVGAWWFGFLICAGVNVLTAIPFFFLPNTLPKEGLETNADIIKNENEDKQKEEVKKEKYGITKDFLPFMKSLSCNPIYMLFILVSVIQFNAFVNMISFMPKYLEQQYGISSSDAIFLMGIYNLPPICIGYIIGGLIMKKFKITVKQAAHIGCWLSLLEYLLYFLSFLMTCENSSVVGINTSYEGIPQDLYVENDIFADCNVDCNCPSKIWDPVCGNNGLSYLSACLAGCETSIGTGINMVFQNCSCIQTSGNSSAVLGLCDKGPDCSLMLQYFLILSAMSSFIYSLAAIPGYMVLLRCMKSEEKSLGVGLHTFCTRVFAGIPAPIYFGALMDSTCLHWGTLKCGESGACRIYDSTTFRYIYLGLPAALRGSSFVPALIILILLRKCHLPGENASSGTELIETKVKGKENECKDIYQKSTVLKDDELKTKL
Protocol: (§1) Daily changes of medium were performed and on the second day after seeding using medium containing 10 mM sodium butyrate.
(§2) Stably transfected HEK cells and control vector-transfected HEK293 cells were first washed (3 × 1 mL) with prewarmed HBSS (pH 7.4) and then were incubated with 250 μL of HBSS containing compounds at concentrations of 1 and 10 μM. Cells were incubated for 10 mins at 37 °C for all experiments. After incubation, uptake was stopped by aspirating the incubation solution and washing each well 3 times with 200 μL of ice-old HBSS. The cells were lysed in 150 μL of 1 M NaOH for 30 mins, and then neutralized by adding equal volumes of 1 M HCl.
(§3) The following equations (3 and 4) were used to calculate the uptake rates (U, pmol/mg/min) and the OATP1B1, OATP1B3, OATP2B1 and OATP1A2 uptake ratio (UR):3 U=Clysate/P×T 4 UR=UOATP1B1/1B3/2B1/1A2/UHEK293−MOCK where C lysate is the compound concentration in cell lysates. P is the protein concentration in cell lysates. T is the incubation time. U OATP1B1/1B3/2B1/1A2 is the uptake rate obtained in HEK293 stably transfected OATP1B1, OATP1B3, OATP2B1 or OATP1A2 transportation. U HEK293-MOCK is the uptake rate obtained in control vector-transfected HEK293 transportation.

OATP2B1 = target: T2, OATP2B1 (Homo sapiens, UniProt O94956); test: as above; conditions: positive control
T2 sequence (O94956 1-709): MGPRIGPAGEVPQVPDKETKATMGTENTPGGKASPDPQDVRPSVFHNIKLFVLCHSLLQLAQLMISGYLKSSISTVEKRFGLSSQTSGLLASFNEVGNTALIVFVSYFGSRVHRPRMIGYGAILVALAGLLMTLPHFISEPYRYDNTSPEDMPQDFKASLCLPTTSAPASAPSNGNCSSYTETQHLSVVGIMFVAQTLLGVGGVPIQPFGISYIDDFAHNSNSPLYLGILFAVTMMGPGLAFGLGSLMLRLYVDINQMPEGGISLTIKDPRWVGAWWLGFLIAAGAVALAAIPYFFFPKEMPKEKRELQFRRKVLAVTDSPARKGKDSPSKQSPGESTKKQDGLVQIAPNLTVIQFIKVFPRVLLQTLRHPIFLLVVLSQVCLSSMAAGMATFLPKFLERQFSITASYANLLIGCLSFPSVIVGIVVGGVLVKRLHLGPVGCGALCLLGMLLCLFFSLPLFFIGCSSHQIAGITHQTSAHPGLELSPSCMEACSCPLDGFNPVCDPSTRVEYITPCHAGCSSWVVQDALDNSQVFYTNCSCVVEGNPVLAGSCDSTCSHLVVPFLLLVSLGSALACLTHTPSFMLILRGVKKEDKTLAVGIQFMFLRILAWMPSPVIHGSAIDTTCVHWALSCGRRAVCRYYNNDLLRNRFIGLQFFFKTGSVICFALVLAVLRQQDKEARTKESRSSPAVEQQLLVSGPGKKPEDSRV
Protocol: as §1, §2, §3

[1] = Blood cell partitioning (blood to plasma ratio); type: in vitro ADME; conditions: fresh whole blood, 37 °C
Protocol: The blood to plasma ratio was determined using the method shown in supplemental information (Supplemental Methods). […] The blood cell partitioning was calculated as follows. […] Plasma, liver microsomes and hepatocyte binding by RED device The stability of the compounds in plasma, liver microsomes and hepatocyte were studied to ensure the reliability of the binding data. Hepatocyte was deactivated by leaving them on a bench for 2 days and going through a freeze thaw cycle thereafter.

CYP1A2 = target: T3, CYP1A2 (Homo sapiens, UniProt P05177); conditions: hepatocytes
T3 sequence (P05177 1-516): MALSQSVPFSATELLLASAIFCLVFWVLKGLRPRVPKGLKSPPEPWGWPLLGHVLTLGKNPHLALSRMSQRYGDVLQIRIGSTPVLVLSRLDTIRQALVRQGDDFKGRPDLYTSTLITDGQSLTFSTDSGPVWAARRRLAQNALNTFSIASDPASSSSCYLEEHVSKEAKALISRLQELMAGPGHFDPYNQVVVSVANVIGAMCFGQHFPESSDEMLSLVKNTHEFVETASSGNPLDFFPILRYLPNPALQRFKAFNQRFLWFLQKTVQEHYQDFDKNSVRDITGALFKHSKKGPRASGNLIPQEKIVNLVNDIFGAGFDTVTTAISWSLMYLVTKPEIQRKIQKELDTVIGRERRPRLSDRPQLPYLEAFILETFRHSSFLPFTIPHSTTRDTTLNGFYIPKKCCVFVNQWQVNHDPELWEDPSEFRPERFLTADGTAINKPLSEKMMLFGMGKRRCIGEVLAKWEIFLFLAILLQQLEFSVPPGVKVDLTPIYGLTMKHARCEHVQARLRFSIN
Protocol: The samples were centrifuged at approximately 1,900 g for 10 mins before LC-MS/MS analysis.
The C YP3A4 and CYP1A2 activities in human hepatocytes were assayed by testosterone 6β-

Hepatocyte stability = type: in vitro ADME; conditions: ICR/CD-1, hepatocytes (cryopreserved, suspension); mouse, 1 μM input, positive controls; read-out: Hepatocytes Clint, app
[2] = Brain distribution by brain slices experiment; type: in vitro ADME, mouse; conditions: mouse brain slices, positive controls
Protocol: The unbound volume of distribution in the brain (V u, brain) was determined in fresh brain slices using the protocol published by Friden et al.[25].

OATP1B1 = target: T4, OATP1B1 (Homo sapiens, UniProt Q9Y6L6); test: OATP substrate identification, uptake in stably transfected HEK293 cells
T4 sequence (Q9Y6L6 1-691): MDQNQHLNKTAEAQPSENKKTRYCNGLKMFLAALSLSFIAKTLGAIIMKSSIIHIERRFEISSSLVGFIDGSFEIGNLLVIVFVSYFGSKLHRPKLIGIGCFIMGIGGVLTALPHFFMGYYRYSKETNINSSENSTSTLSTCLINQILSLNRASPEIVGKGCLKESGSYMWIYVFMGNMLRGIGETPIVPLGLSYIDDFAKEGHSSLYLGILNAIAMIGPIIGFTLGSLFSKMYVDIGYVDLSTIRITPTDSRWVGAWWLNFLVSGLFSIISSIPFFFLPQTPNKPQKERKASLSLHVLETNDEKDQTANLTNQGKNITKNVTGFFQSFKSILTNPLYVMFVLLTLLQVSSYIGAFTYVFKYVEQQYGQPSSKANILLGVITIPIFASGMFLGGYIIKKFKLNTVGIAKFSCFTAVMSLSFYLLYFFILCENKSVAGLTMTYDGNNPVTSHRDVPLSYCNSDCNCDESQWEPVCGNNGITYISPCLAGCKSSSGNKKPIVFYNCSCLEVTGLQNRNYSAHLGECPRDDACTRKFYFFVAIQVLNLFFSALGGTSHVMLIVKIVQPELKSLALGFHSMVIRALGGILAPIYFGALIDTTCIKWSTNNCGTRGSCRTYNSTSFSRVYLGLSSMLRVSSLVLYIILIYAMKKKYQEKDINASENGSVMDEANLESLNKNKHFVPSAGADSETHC
Protocol: as §1, §2, §3

OATP1B3 = target: T5, OATP1B3 (Homo sapiens, UniProt Q9NPD5); test: as above
T5 sequence (Q9NPD5 1-702): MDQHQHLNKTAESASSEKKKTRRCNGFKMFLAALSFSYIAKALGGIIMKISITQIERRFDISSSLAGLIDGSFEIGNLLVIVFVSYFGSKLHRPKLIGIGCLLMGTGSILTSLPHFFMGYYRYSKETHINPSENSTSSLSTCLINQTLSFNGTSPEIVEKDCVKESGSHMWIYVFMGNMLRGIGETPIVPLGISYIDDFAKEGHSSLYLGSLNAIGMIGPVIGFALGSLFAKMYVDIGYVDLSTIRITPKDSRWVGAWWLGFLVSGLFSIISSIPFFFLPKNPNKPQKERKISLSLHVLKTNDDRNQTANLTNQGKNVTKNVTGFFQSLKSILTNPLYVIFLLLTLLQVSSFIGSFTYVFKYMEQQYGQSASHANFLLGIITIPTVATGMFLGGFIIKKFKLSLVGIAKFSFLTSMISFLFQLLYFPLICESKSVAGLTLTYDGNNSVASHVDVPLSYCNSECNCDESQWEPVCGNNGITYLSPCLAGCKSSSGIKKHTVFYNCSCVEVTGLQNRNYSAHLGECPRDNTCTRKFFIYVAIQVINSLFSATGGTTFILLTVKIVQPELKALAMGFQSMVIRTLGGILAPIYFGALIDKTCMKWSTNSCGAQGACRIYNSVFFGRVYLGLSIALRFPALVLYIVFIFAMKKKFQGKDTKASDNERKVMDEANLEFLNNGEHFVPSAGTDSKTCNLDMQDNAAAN
Protocol: as §1, §2, §3

Caco-2 cells = test: In vitro permeability study using Caco-2 cell; conditions: Caco-2, 1 μM input, positive controls
[3] = Plasma binding by RED device; type: in vitro ADME, mouse; conditions: mouse plasma, RED device, 4 h, 37 °C; also: tested at 0.4 µM
Protocol: (§4) Nonspecific binding in plasma (f u, plasma), microsomes (f u, mic) and hepatocyte (f u, hep) were determined using the method seen in supplemental information (Supplemental Methods). […]
(§5) All validation compounds were incubated at 37 °C over 4 h, and in triplicate. For […]
(§6) plasma stability, 10 mM DMSO solutions of SLM and SLOH were diluted to 40 µM (10% DMSO). Plasma […]
(§7) shaking water bath (60 oscillations/min approx.). The assay was started by addition of 6 µL aliquots to […]
(§8) the plasma (final DMSO incubation concentration 0.1%). […]
(§9) MS/MS. Natural logarithm of peak area ratios (compound peak area normalized by IS peak area) were plotted against time and half-life calculated. […]
(§10) placed into the sample chamber (indicated by the red ring) with 400 µL of PBS into the adjacent chamber.
(§11) The plate was sealed with a self-adhesive lid and incubated at 37 °C on an orbital shaker (1.5 g approx.) for 4 h. Aliquots (100 µL) were removed from each side of the insert, and analyzed after protein precipitation using 4 folds acetonitrile (ACN) containing berberine chloride as internal standard (IS) by LC-MS/MS (Analytical me thod seen below). The experimental procedure outlined in the Thermo Scientific RED device systems brochure was adopted in the present study . […]

[4] = Plasma binding by RED device; type: in vitro ADME, human; conditions: human plasma, RED device, 4 h, 37 °C; also: tested at 0.4 µM
Protocol: as §4, §5, §6, §7, §8, §9, §10, §11

Question: Which Papp A→B at 2 μM (in vitro) does the source give for `CC[C@@]1(O)C(=O)OCc2c1cc1n(c2=O)Cc2cc3c(CN(C)C)c(O)ccc3nc2-1` [Topotecan] here?
Answer: 1.2 ± 0.09 ×10⁻⁶ cm/s

Question: And the efflux ratio at 2 μM (in vitro)?
Answer: 4.6 ± 1.7

Question: With `COC(=O)c1ccccc1-c1c2ccc(=N)cc-2oc2cc(N)ccc12` [Rhodamine 123] as the molecule, how does the Papp A→B at 1 μM (in vitro) read?
Answer: 0.73 ± 0.02 ×10⁻⁶ cm/s

Question: What does the source list for `C[C@]12CC[C@@H]3c4ccc(OS(=O)(=O)O)cc4CC[C@H]3[C@@H]1CCC2=O` [estrone-3-sulfate, reference compound]?
Answer: uptake ratio of OATP1A2 (OATP1A2): 18 ± 3.7; uptake ratio of OATP2B1 (OATP2B1): 13 ± 2.9

Question: For `NS(=O)(=O)c1cc(C2(O)NC(=O)c3ccccc32)ccc1Cl` (stereo not drawn) [Chlorthalidone, reference compound], which blood plasma ratio at 1 h, 1 μM ([1]; human) is on record?
Answer: 11 ± 3.2

Question: What about the blood plasma ratio at 1 h, 1 μM ([1]; mouse) of the same molecule?
Answer: 6.2 ± 0.2

Question: Which “phenacetin O-deethylation (CYP1A2 activity)” value (CYP1A2) does the source give for `CCOc1ccc(NC(C)=O)cc1` [Phenacetin, reference compound] here?
Answer: 24.3 ± 3.25 pmol/min/106 cells

Question: And the hepatocyte CLint at 1 μM (Hepatocyte stability)?
Answer: 33 ± 8 µL/min/1e6 cells

Question: With `NCC1(CC(=O)O)CCCCC1` [Gabapentin, reference compound] as the molecule, how does the “Unbound brain distribution (Vu, brain)” value [2] read?
Answer: 2.20 ± 1.00 mL/g brain

Question: For `C[C@]12CC[C@@H]3c4ccc(O)cc4CC[C@H]3[C@@H]1CC[C@@H]2O[C@@H]1O[C@H](C(=O)O)[C@@H](O)[C@H](O)[C@H]1O` [β-Estradiol 17-β-D-glucuronide, reference compound], which “uptake ratio of OATP1B1” value (OATP1B1) is on record?
Answer: 45 ± 7.6

Question: What about the “uptake ratio of OATP1B3” value (OATP1B3) of the same molecule?
Answer: 10 ± 3.0

Question: What does the source list for `C[C@H]1O[C@@H](O[C@H]2[C@@H](O)C[C@H](O[C@H]3[C@@H](O)C[C@H](O[C@H]4CC[C@@]5(C)[C@H](CC[C@@H]6[C@@H]5C[C@@H](O)[C@]5(C)[C@@H](C7=CC(=O)OC7)CC[C@]65O)C4)O[C@@H]3C)O[C@@H]2C)C[C@H](O)[C@@H]1O` [Digoxin]?
Answer: Papp A→B at 2 μM (in vitro): 3.5 ± 0.34 ×10⁻⁶ cm/s; efflux ratio at 2 μM (in vitro): 5 ± 1.5

Question: For `O=C([O-])c1ccccc1-c1c2ccc(=O)cc-2oc2cc([O-])ccc12.[Na+].[Na+]` [Sodium fluorescein], which “Papp (A-B)” value (Caco-2 cells) is on record?
Answer: 1.40 ± 0.260 (cm/s) × 10-6

Question: Which results are given for `CC(C)NCC(O)COc1cccc2ccccc12` (stereo not drawn) [Propranolol, reference compound]?
Answer: Papp A→B at 1 μM (in vitro): 17 ± 1.3 ×10⁻⁶ cm/s; f u,plasma % [3]: 0.220 ± 0.0200%; f u,plasma % [4]: 6.50 ± 0.480%
